The record followed here is US9795551B2, “Tetrapeptides and a method of use as an antioxidant” (L'OREAL, priority 2014, dated 2017).

A short description of assay [1]: ORAC oxygen radical absorbance capacity (USTM 192), in tubo. How it is done:
(§1) In the screening standard testing for oxygen radical absorbance capacity (ORAC) and hydroxyl radical absorbance capacity (HORAC) were conducted with the test polypeptides. Testing was conducted according to USTM 190 (HORAC) and USTM 192 (ORAC).
(§2) The peptides were tested in tubo for their antioxidant properties and tested against reference/known antioxidants. The evaluation of the antioxidant properties were conducted by determination of the ORAC (USTM 192) and HORAC (USTM 190) test methods. The results are listed in Table I for the peptides of the invention and for the conventionally known antioxidants vitamin C and Carnosine.

Assay [2] is described as follows: HORAC hydroxyl radical absorbance capacity (USTM 190), in tubo. Here is the method:
as §1, §2

With `NCCC(=O)N[C@@H](Cc1c[nH]cn1)C(=O)O` [Carnosine, β-alanyl-histidine, reference compound], the ORAC/peroxyl in assay [1] is reported as 354 μmol GAE/g. The HORAC/hydroxyl in assay [2] is given as 2099 μmol GAE/g.

The compound `O=C1O[C@H]([C@@H](O)CO)C(O)=C1O` [Vitamin C, reference compound] displayed an ORAC/peroxyl in assay [1] of 4456 μmol GAE/g. In assay [2], the HORAC/hydroxyl was 0 μmol GAE/g.

In assay [1], Ac-wRyR-NH2 [RED27] had an ORAC/peroxyl of 5342 μmol GAE/g. The compound also came in with an HORAC/hydroxyl in assay [2] of 735 μmol GAE/g.

Turning to RwRyR-NH2 [RED26], in assay [1], the ORAC/peroxyl is listed as 4461 μmol GAE/g. Further, the HORAC/hydroxyl entry in assay [2] is “No capacity”.

RyR-NH2 [RED32] registered an ORAC/peroxyl in assay [1] of 3385 μmol GAE/g. In assay [2], this compound registered an HORAC/hydroxyl of 230 μmol GAE/g.

WKYK-NH2 [RED25] came in with an ORAC/peroxyl in assay [1] of 4168 μmol GAE/g. In assay [2], this compound displayed an HORAC/hydroxyl of 2476 μmol GAE/g.

The compound WRYR [RED23] came in with an ORAC/peroxyl in assay [1] of 4091 μmol GAE/g. The same compound registered an HORAC/hydroxyl in assay [2] of 2089 μmol GAE/g.

The compound WRYR-NH2 [RED6] returned an ORAC/peroxyl in assay [1] of 4488 μmol GAE/g. In addition, the HORAC/hydroxyl in assay [2] amounted to 1548 μmol GAE/g.

Regarding WRYr-NH2 [RED19], the ORAC/peroxyl in assay [1] is 4350 μmol GAE/g. In addition, the HORAC/hydroxyl in assay [2] is 1457 μmol GAE/g.

In the case of WRyR-NH2 [RED21], the ORAC/peroxyl in assay [1] is 4816 μmol GAE/g. The compound also displayed an HORAC/hydroxyl in assay [2] of 2472 μmol GAE/g.

Take WrYR-NH2 [RED20]: in assay [1], the ORAC/peroxyl worked out at 4448 μmol GAE/g. This compound yielded an HORAC/hydroxyl in assay [2] of 1666 μmol GAE/g.

In assay [1], WrYr-NH2 [RED18] came in with an ORAC/peroxyl of 4758 μmol GAE/g. For the same compound, the HORAC/hydroxyl in assay [2] was found to be 2982 μmol GAE/g.

In assay [1], wRYR-NH2 [RED24] yielded an ORAC/peroxyl of 4077 μmol GAE/g. For the same compound, the HORAC/hydroxyl in assay [2] came to 2225 μmol GAE/g.

Take wRwR-NH2 [RED31]: the ORAC/peroxyl in assay [1] is recorded as 4652 μmol GAE/g. Also, the HORAC/hydroxyl in assay [2] is listed as 1189 μmol GAE/g.

wRyR-NH2 [RED22] gave an ORAC/peroxyl in assay [1] of 5383 μmol GAE/g. The compound also had an HORAC/hydroxyl in assay [2] of 1686 μmol GAE/g.

The compound wRyRw-NH2 [RED29] gave an ORAC/peroxyl in assay [1] of 5512 μmol GAE/g. Also, the HORAC/hydroxyl entry in assay [2] is given as “No capacity”.

In assay [1], wRyRy-NH2 [RED28] showed an ORAC/peroxyl of 5216 μmol GAE/g. Further, the HORAC/hydroxyl entry in assay [2] was “No capacity”.
